The half-life is the time needed for the level to fall by half in the phase considered.

Data set [1] has as its target α1 subunit-containing GABAA receptors (Homo sapiens, UniProt P14867+P18507). Also on record: key to Subtype α1: act as partial positive modulators for particular subtype combinations; none: zero efficacy (i.e., antagonism) at other subtypes. The settings on record: cited from earlier work.
Data set [2] addresses α5 subunit-containing GABAA receptors (Homo sapiens, UniProt P18507+P31644). Also on record: key to Subtype α5: act as partial positive modulators for particular subtype combinations; none: zero efficacy (i.e., antagonism) at other subtypes. Conditions: cited from earlier work.
Data set [3] has as its target α3 subunit-containing GABAA receptors (Homo sapiens, UniProt P18507+P34903). Also on record: key: act as partial positive modulators for particular subtype combinations; none: zero efficacy (i.e., antagonism) at other subtypes. Conditions: cited from earlier work.
In data set [4] the test system is GABAA receptor subtypes. Conditions: cited from earlier work.
In data set [5] the test system is rats. Description: Blockade of diazepam suppression of responding (30 min pretreatment). The settings on record: ligand 3.0 mg/kg; diazepam 30 min pretreatment; FIG. 12A; N=5. It is filed as in vivo, rat. How it is done: This profile is very similar to that of TPA023B despite the structural differences. […] For both compounds, we chose 3.0 mg/kg, i.p., in rats based on published literature or pilot studies in our laboratories.
FIGS. 12A and 12B illustrate the results of acute dependency testing using these compounds.

For data set [6] the following is noted: rhesus monkey, cited from earlier work.
Data set [7] deals with Sprague-Dawley rats. Briefly: Precipitated withdrawal/acute dependence: responding 60 min after diazepam bolus. Type of data set: in vivo, rat. Conditions: ligand 3.0 mg/kg; FIG. 12B; N=5. As for the experimental part: Acute dependence can occur after single exposures to the benzodiazepine chlordiazepoxide, but not to an α2/3GABAA selective ligand (Fischer et al. 2013, Psychopharmacology 227: 347-54). Here, the extent to which TPA023B can precipitate withdrawal in rats following a single, large bolus dose of diazepam was studied. […] Once rates of responding were stable, doses of diazepam, the non-selective benzodiazepine antagonist flumazenil, and TPA023B were administered prior to the session.

In data set [8] the target is α2 subunit-containing GABAA receptors (Homo sapiens, UniProt P18507+P47869). Also noted: key: act as partial positive modulators for particular subtype combinations; none: zero efficacy (i.e., antagonism) at other subtypes. Conditions: cited from earlier work.
On the set-up of data set [9]: key to Pharmacokinetics: “poor” - low bioavailability and/or short half-life; “good” - potent with long half-life. The settings on record: in vivo; cited from earlier work.
Data set [10] deals with patients with Generalized Anxiety Disorder. Conditions: cited from earlier work.
In data set [11] the test system is rhesus monkeys. Description: i.v. self-administration under progressive-ratio (PR) schedule. It is filed as in vivo, rhesus monkey. Conditions: dose at which self-administration was highest; n=4 monkeys; FIG. 5. From the text: The abuse potential of novel compounds can be determined by use of i.v. self-administration procedures, in which a compound is available to a subject previously trained to press a lever to obtain a known drug of abuse. Our standard procedure is to use a progressive-ratio (PR) schedule, in which an increasing number of responses are required to obtain an injection. The last response requirement completed is referred to as a “break point” (BP) and represents the maximum amount of “work” a subject will perform to obtain the drug or compound.
In the present example, eight rhesus monkeys (4 females, 4 males) were trained to respond under a schedule of i.v. midazolam (a conventional benzodiazepine) injection at 0.03 mg/kg/injection. Once self-administration had been acquired (>20 injections/daily 2-hour sessions), monkeys were trained under the PR schedule as described by Shinday et al. (2013). Daily experimental sessions consisted of five components, each made up of four trials (i.e., 20 trials total). […]
In order to directly compare lorazepam and TPA023B self-administration, we here analyzed BP values at the doses that maintained the highest level of mean injections/session and compared these BP values with those obtained after vehicle tests.

Data set [12] has as its system rhesus monkeys. The settings on record: visual recognition memory and spatial working memory; cited from earlier work.

Sequence of α1 subunit-containing GABAA receptors (P14867 28-456): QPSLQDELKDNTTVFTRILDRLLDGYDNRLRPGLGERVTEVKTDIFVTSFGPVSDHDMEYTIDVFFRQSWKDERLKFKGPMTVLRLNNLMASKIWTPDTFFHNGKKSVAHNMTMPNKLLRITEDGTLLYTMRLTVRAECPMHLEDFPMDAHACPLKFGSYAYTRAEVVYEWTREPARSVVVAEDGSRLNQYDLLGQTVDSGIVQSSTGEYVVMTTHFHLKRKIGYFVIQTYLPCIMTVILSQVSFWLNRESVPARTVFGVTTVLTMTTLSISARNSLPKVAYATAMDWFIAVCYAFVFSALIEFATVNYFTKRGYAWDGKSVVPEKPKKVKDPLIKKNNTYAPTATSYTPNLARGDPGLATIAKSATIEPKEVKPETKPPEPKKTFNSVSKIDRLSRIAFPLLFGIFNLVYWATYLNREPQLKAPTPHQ
Sequence of α1 subunit-containing GABAA receptors (P18507 40-475): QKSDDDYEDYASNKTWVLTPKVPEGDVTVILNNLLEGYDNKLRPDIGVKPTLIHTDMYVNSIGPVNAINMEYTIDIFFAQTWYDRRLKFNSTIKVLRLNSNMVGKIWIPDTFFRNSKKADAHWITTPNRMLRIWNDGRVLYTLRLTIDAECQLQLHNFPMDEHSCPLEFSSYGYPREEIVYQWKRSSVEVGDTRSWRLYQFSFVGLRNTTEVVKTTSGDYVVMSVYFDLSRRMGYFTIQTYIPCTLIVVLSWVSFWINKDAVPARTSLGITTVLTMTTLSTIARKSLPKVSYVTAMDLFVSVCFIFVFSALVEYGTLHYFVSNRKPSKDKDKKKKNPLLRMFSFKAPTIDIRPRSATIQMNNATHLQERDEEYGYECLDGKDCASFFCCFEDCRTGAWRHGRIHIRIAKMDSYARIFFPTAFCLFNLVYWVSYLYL
Sequence of α1 subunit-containing GABAA receptors (P28472 26-473 partner): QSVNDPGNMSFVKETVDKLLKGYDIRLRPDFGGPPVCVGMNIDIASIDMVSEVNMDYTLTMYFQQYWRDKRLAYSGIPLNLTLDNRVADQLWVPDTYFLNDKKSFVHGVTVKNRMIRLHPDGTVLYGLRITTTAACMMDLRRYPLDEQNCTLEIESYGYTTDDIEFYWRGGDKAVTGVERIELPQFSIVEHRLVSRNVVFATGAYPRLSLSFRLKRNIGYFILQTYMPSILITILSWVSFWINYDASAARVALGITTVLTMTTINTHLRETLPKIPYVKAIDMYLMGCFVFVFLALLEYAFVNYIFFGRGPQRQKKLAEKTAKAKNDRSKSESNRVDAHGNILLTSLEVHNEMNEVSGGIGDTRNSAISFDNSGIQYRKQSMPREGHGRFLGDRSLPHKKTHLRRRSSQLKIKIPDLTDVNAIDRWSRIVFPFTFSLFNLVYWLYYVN
Sequence of α3 subunit-containing GABAA receptors (P34903 29-492): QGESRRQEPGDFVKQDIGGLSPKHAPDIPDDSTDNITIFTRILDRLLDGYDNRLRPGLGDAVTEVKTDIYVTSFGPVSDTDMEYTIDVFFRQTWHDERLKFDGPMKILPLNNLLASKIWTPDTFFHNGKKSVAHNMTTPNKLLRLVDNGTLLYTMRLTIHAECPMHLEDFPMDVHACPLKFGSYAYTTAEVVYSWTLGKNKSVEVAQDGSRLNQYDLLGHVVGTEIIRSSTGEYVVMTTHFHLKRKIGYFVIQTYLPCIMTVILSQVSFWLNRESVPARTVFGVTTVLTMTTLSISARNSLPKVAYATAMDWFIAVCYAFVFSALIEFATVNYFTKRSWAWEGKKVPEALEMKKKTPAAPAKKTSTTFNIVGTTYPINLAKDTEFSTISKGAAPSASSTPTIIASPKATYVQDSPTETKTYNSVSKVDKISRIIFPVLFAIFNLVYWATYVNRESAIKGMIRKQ
Sequence of α3 subunit-containing GABAA receptors (P18507 40-475): as the sequence (P18507 40-475) above
Sequence of α3 subunit-containing GABAA receptors (P28472 26-473 partner): as the sequence (P28472 26-473 partner) above
Sequence of α5 subunit-containing GABAA receptors (P31644 32-462): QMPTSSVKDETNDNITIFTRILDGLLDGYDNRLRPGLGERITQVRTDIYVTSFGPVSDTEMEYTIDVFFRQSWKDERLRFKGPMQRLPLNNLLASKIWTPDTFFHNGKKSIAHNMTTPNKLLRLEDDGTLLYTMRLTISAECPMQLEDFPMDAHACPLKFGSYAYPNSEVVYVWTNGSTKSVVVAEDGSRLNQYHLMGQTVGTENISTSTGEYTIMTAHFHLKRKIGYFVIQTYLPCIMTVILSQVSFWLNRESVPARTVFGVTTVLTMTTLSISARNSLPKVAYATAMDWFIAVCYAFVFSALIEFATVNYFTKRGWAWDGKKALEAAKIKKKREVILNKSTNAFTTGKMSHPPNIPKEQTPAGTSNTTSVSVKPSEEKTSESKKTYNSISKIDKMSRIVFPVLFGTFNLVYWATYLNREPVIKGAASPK
Sequence of α5 subunit-containing GABAA receptors (P18507 40-475): as the sequence (P18507 40-475) above
Sequence of α5 subunit-containing GABAA receptors (P28472 26-473 partner): as the sequence (P28472 26-473 partner) above
Sequence of α2 subunit-containing GABAA receptors (P47869 29-451): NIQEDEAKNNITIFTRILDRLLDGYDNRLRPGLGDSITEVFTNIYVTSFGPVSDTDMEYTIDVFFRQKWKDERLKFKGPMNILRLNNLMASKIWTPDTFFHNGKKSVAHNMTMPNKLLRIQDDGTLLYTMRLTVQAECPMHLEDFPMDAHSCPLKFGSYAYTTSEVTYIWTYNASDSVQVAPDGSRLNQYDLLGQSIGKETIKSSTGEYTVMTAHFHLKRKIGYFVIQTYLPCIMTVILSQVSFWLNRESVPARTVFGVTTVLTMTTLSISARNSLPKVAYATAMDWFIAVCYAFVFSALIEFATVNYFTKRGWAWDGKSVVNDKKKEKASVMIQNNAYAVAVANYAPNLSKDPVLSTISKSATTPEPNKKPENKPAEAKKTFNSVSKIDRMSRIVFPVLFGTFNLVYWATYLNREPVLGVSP
Sequence of α2 subunit-containing GABAA receptors (P18507 40-475): as the sequence (P18507 40-475) above
Sequence of α2 subunit-containing GABAA receptors (P28472 26-473 partner): as the sequence (P28472 26-473 partner) above

`CC(C)(O)c1ccn2c(-c3ccc(F)c(-c4cccnc4)c3)cnc2n1` [MRK-623]: the “Subtype α1” value in data set [1] was “none”. Besides, the “Subtype α5” value in [2] was “none”. Moreover, in data set [3], the “Subtype α3” value is “partial”. In [4], the functional/subtype selectivity result is “α2/3GABAA subtype selective”. Also, in data set [5], the “ability of diazepam to suppress rates of responding” value is on record as “blocked”. Moreover, the “bioavailability (in words)” value in data set [6] (in vivo) was “fair”. Further, the half-life in data set [6] was 30 min. The “rates of responding after 60-min pretreatment of diazepam (acute dependence)” value in [7] is on record as “neither L-838,417 nor MRK-623 altered rates of responding”. In addition, the “Subtype α2” value in data set [8] is reported as “partial”. Also, the Pharmacokinetics entry in [9] is “poor”.
As to `CCn1ncnc1COc1nn2c(-c3ccccc3F)nnc2cc1C(C)(C)C` [TPA023], in data set [1], the “Subtype α1” value was “none” and the “efficacy at α1GABAA subtype” value is recorded as “no efficacy”. The “Subtype α5” value in [2] is reported as “none”. For the same compound, the “Subtype α3” value in data set [3] is listed as “partial”. The “adverse effects leading to halt in Phase II” value in data set [10] (human, in vivo) is on record as “cataract development”. For the same compound, in data set [10] (post hoc analyses, three clinical trials), the “anxiolysis in patients with Generalized Anxiety Disorder” value was “significant anxiolysis”. Also, the “Subtype α2” value in [8] is “partial”. Also, in [9], the Pharmacokinetics result was “good”.
`O=C1Nc2ccc(Cl)cc2C(c2ccccc2Cl)=NC1O` (centres unmarked) [lorazepam, reference compound]: in data set [11], the “median break point (BP), highest response requirement” value is 320.
For `Cc1nnc2n1-c1ccc(Cl)cc1C(c1ccccc1Cl)=NC2` [triazolam, reference compound], the “accuracy in DMTS and SOSS tasks” value in [12] is recorded as “significantly reduced accuracy”.

Source of the values: patent publication US12233070B2, “Methods for treating benzodiazepine misuse/use disorder” (University of M[…] Center, priority 2020, dated 2025).
